Each structure is given as a SMILES string.

Our source for the melting point values is patent US8962674B2 (Tokyo Institute of Technology, priority 2006, dated 2015).

`O=C(/C=C/c1ccc(O)cc1)CC(=O)/C=C/c1cn(Cc2ccccc2)c2ccccc12` [CU331, (1E,6E)-1-(1-benzyl-1H-indol-3-yl)-7-(4-hydroxyphenyl)hepta-1,6-diene-3,5-dione]: the melting point lay within 243 to 249 °C.
As to `O=C(/C=C/c1ccc(O)cc1)CC(=O)/C=C/c1ccc(N2CCN(Cc3ccccc3)CC2)nc1` [CU332, (1E,6E)-1-[6-(4-benzylpiperazin-1-yl)pyridin-3-yl]-7-(4-hydroxyphenyl)hepta-1,6-diene-3,5-dione], the melting point fell in the range of 132 to 138 °C.
The result for `Cc1ccc(Oc2ccc(/C=C/C(=O)CC(=O)/C=C/c3ccc(O)cc3)cn2)cc1` [CU333, (1E,6E)-1-(4-hydroxyphenyl)-7-[6-(4-methylphenoxy)pyridin-3-yl]hepta-1,6-diene-3,5-dione] reads 167 to 172 °C; that for `O=C(/C=C/c1ccc(O)cc1)CC(=O)/C=C/c1cccnc1N1CCOCC1` [CU337, (1E,6E)-1-(4-hydroxyphenyl)-7-(2-morpholinopyridin-3-yl)hepta-1,6-diene-3,5-dione], 159 to 165 °C.
Under `Cc1ccc(-n2cccc2/C=C/C(=O)CC(=O)/C=C/c2ccc(O)cc2)cc1` [CU338, (1E,6E)-1-(4-hydroxyphenyl)-7-[1-(4-methylphenyl)-1H-pyrrol-2-yl]hepta-1,6-diene-3,5-dione] stands 144 to 150 °C; under `Cc1ccc(Oc2ncccc2/C=C/C(=O)CC(=O)/C=C/c2ccc(O)cc2)cc1` [CU340, (1E,6E)-1-(4-hydroxyphenyl)-7-[2-(4-methylphenoxy)pyridin-3-yl]hepta-1,6-diene-3,5-dione], 180 to 185 °C.
With `O=C(/C=C/c1ccc(O)cc1)CC(=O)/C=C/c1ccc2[nH]nnc2c1` [CU346, (1E,6E)-1-(1H-benzotriazol-5-yl)-7-(4-hydroxyphenyl)hepta-1,6-diene-3,5-dione], the melting point fell in the range of 211 to 216 °C.
Compound `O=C(/C=C/c1ccc(O)cc1)CC(=O)/C=C/c1ccc2nccnc2c1` [CU348, (1E,6E)-1-(4-hydroxyphenyl)-7-(quinoxalin-6-yl)hepta-1,6-diene-3,5-dione] yielded a melting point of 251 to 255 °C.
Under `O=C(/C=C/c1ccc(O)cc1)CC(=O)/C=C/c1ccc2[nH]ncc2c1` [CU349, (1E,6E)-1-(4-hydroxyphenyl)-7-(1H-indazol-5-yl)hepta-1,6-diene-3,5-dione] stands 148 to 152 °C; under `O=C(/C=C/c1ccc2c(c1)OCCO2)CC(=O)/C=C/c1ccc2c(c1)OCCO2` [CU356, (1E,6E)-1,7-bis(1,4-benzodioxan-6-yl)hepta-1,6-diene-3,5-dione], 184 to 187 °C; under `COc1cc(O)cc(/C=C/C(=O)CC(=O)/C=C/c2cc(O)cc(OC)c2)c1` [CU358, (1E,6E)-1,7-bis(3-hydroxy-5-methoxyphenyl)hepta-1,6-diene-3,5-dione], 147 to 151 °C.
The result for `O=C(/C=C/c1ccc(O)cc1Cl)CC(=O)/C=C/c1ccc(O)cc1Cl` [CU362, (1E,6E)-1,7-bis(2-chloro-4-hydroxyphenyl)hepta-1,6-diene-3,5-dione] reads 248 to 254 °C; that for `COc1c(O)cccc1/C=C/C(=O)CC(=O)/C=C/c1cccc(O)c1OC` [CU363, (1E,6E)-1,7-bis(3-hydroxy-2-methoxyphenyl)hepta-1,6-diene-3,5-dione], 62 to 65 °C; that for `O=C(/C=C/c1cccnc1N1CCOCC1)CC(=O)/C=C/c1cccnc1N1CCOCC1` [CU366, (1E,6E)-1,7-bis(2-morpholinopyridin-3-yl)hepta-1,6-diene-3,5-dione], 192 to 195 °C.
The result for `O=C(/C=C/c1ccc(Oc2ccccc2)cc1)CC(=O)/C=C/c1ccc(Oc2ccccc2)cc1` [CU370, (1E,6E)-1,7-bis(4-phenoxyphenyl)hepta-1,6-diene-3,5-dione] reads 193 to 196 °C; that for `Cc1ccc(Oc2ccc(/C=C/C(=O)CC(=O)/C=C/c3ccc(Oc4ccc(C)cc4)nc3)cn2)cc1` [CU378, (1E,6E)-1,7-bis[6-(4-methylphenoxy)pyridin-3-yl]hepta-1,6-diene-3,5-dione], 185 to 190 °C.
Compound `COc1ccc(O)cc1/C=C/C(=O)CC(=O)/C=C/c1cc(O)ccc1OC` [CU380, (1E,6E)-1,7-bis(5-hydroxy-2-methoxyphenyl)hepta-1,6-diene-3,5-dione] yielded a melting point of 188 to 196 °C.
The result for `O=C(/C=C/c1ccc2[nH]ccc2c1)CC(=O)/C=C/c1ccc2[nH]ccc2c1` [CU382, (1E,6E)-1,7-bis(1H-indol-5-yl)hepta-1,6-diene-3,5-dione] reads 263 to 266 °C; that for `O=C(/C=C/c1cccc2ncccc12)CC(=O)/C=C/c1cccc2ncccc12` [CU384, (1E,6E)-1,7-bis(quinolin-5-yl)hepta-1,6-diene-3,5-dione], 170 to 174 °C.
As to `O=C(/C=C/c1cccnc1N1CCN(Cc2ccccc2)CC1)CC(=O)/C=C/c1cccnc1N1CCN(Cc2ccccc2)CC1` [CU385, (1E,6E)-1,7-bis[2-(4-benzylpiperazin-1-yl)pyridin-3-yl]hepta-1,6-diene-3,5-dione], the melting point lay within 150 to 155 °C.
The result for `CN1CCN(c2ccc(/C=C/C(=O)CC(=O)/C=C/c3ccc(N4CCN(C)CC4)cc3)cc2)CC1` [CU386, (1E,6E)-1,7-bis[4-(4-methylpiperazin-1-yl)phenyl]hepta-1,6-diene-3,5-dione] reads 212 to 217 °C; that for `O=C(/C=C/c1ccc(O)c(Cl)c1)CC(=O)/C=C/c1ccc(O)c(Cl)c1` [CU387, (1E,6E)-1,7-bis(3-chloro-4-hydroxyphenyl)hepta-1,6-diene-3,5-dione], 203 to 208 °C.
As for `Cc1ccc(-n2cccc2/C=C/C(=O)CC(=O)/C=C/c2cccn2-c2ccc(C)cc2)cc1` [CU389, (1E,6E)-1,7-bis[1-(4-methylphenyl)-1H-pyrrol-2-yl]hepta-1,6-diene-3,5-dione], the melting point fell in the range of 151 to 155 °C.
The result for `COc1cccc(OC)c1/C=C/C(=O)CC(=O)/C=C/c1c(OC)cccc1OC` [CU390, (1E,6E)-1,7-bis(2,6-dimethoxyphenyl)hepta-1,6-diene-3,5-dione] reads 180 to 184 °C; that for `O=C(/C=C/c1ccc2cc[nH]c2c1)CC(=O)/C=C/c1ccc2cc[nH]c2c1` [CU391, (1E,6E)-1,7-bis(1H-indol-6-yl)hepta-1,6-diene-3,5-dione], 247 to 255 °C; that for `O=C(/C=C/c1cccc2cc[nH]c12)CC(=O)/C=C/c1cccc2cc[nH]c12` [CU392, (1E,6E)-1,7-bis(1H-indol-7-yl)hepta-1,6-diene-3,5-dione], 211 to 215 °C.
`O=C(/C=C/c1cc2ccccc2[nH]1)CC(=O)/C=C/c1cc2ccccc2[nH]1` [CU393, (1E,6E)-1,7-bis(1H-indol-2-yl)hepta-1,6-diene-3,5-dione] registered a melting point of 264 to 268 °C.
In the case of `CC(C)(C)OC(=O)N[C@@H](Cc1ccccc1)C(=O)Nc1ccc(/C=C/C(=O)CC(=O)/C=C/c2ccc(O)cc2)cc1` [CU396, (1E,6E)-1-(4-hydroxyphenyl)-7-[4-((S)-2-tert-butoxycarbonylamino-3-phenylpropionylamino)phenyl]hepta-1,6-diene-3,5-dione], the melting point lay in the range of 116 to 121 °C.
Regarding `O=C(/C=C/c1cn(Cc2ccccc2)c2ccccc12)CC(=O)/C=C/c1cn(Cc2ccccc2)c2ccccc12` [CU397, (1E,6E)-1,7-bis(1-benzyl-1H-indol-3-yl)hepta-1,6-diene-3,5-dione], the melting point lay in the range of 206 to 213 °C.
For the compound `O=C(/C=C/c1ccc(O)cc1)CC(=O)/C=C/c1ccc2ccn(Cc3ccccc3)c2c1` [CU400, (1E,6E)-1-(1-benzyl-1H-indol-6-yl)-7-(4-hydroxyphenyl)hepta-1,6-diene-3,5-dione], the melting point is 164 to 170 °C.
The result for `CS(=O)(=O)n1cc(/C=C/C(=O)CC(=O)/C=C/c2ccc(O)cc2)c2ccccc21` [CU401, (1E,6E)-1-(4-hydroxyphenyl)-7-[1-(methylsulfonyl)-1H-indol-3-yl]hepta-1,6-diene-3,5-dione] reads 196 to 200 °C; that for `Cc1ccc(S(=O)(=O)n2cc(/C=C/C(=O)CC(=O)/C=C/c3ccc(O)cc3)c3ccccc32)cc1` [CU403, (1E,6E)-1-(4-hydroxyphenyl)-7-(1-tosyl-1H-indol-3-yl)hepta-1,6-diene-3,5-dione], 218 to 222 °C; that for `Cc1ccc(S(=O)(=O)n2ccc3ccc(/C=C/C(=O)CC(=O)/C=C/c4ccc(O)cc4)cc32)cc1` [CU404, (1E,6E)-1-(4-hydroxyphenyl)-7-(1-tosyl-1H-indol-6-yl)hepta-1,6-diene-3,5-dione], 107 to 112 °C.
The result for `CC(C)(C)OC(=O)Nc1ccc(/C=C/C(=O)CC(=O)/C=C/c2ccc(O)cc2)cc1` [CU405, (1E,6E)-1-[4-(tert-butoxycarbonylamino)phenyl]-7-(4-hydroxyphenyl)hepta-1,6-diene-3,5-dione] reads 181 to 184 °C; that for `CC(C)(C)OC(=O)N[C@H](Cc1ccccc1)C(=O)Nc1ccc(/C=C/C(=O)CC(=O)/C=C/c2ccc(O)cc2)cc1` [CU406, (1E,6E)-1-[4-((R)-2-tert-butoxycarbonylamino-3-phenylpropionylamino)phenyl]-7-(4-hydroxyphenyl)hepta-1,6-diene-3,5-dione], 113 to 120 °C.
For the compound `O=C(/C=C/c1ccc(O)cc1)CC(=O)/C=C/c1coc2ccccc2c1=O` [CU407, (1E,6E)-1-(chromon-3-yl)-7-(4-hydroxyphenyl)hepta-1,6-diene-3,5-dione], the melting point fell in the range of 227 to 231 °C.
Under `Nc1ccc(/C=C/C(=O)CC(=O)/C=C/c2ccc(O)cc2)cc1` [CU408, (1E,6E)-1-(4-aminophenyl)-7-(4-hydroxyphenyl)hepta-1,6-diene-3,5-dione] stands 212 to 217 °C; under `Cn1c(/C=C/C(=O)CC(=O)/C=C/c2cc3ccccc3n2C)cc2ccccc21` [CU409, (1E,6E)-1,7-bis(1-methyl-1H-indol-2-yl)hepta-1,6-diene-3,5-dione], 189 to 196 °C; under `COc1cc(N(C)C)ccc1/C=C/C(=O)CC(=O)/C=C/c1ccc(N(C)C)cc1OC` [CU410, (1E,6E)-1,7-bis(4-dimethylamino-2-methoxyphenyl)hepta-1,6-diene-3,5-dione], 76 to 86 °C.
